Columns and labels:
NCI-H460 = assay: Synergistic interaction with DHA, combination index (Chou-Talalay, SRB); assay type: cell-based; conditions: drug in combination with DHA (1.0-20 μM), DHA 2 h before, drug 72 h
Procedure: (§1) Tumour cells were treated for 2 h with DHA prior to exposure to further chemotherapeutic agents for 72 h. Cell survival was then evaluated through sulphorodamine B test. Data gathered from the various combination experiments were analyzed using Calcusyn software (Biosoft, Ferguson, Mo.) through the elaboration of isobolograms to determine if the combinations of DHA and the various chemotherapeutic agents were additive, synergistic or antagonistic.

CAPAN-1 = assay: as above; assay type: cell-based; conditions: drug in combination with DHA (1.0-20 μM), DHA 2 h before, drug 72 h
Procedure: as §1

MDA-MB436 = assay: as above; assay type: cell-based; conditions: drug in combination with DHA (1.0-20 μM), DHA 2 h before, drug 72 h
Procedure: as §1

A431 = assay: as above; assay type: cell-based; conditions: drug in combination with DHA (1.0-20 μM), DHA 2 h before, drug 72 h
Procedure: as §1

HCT116 [1] = assay: as above; assay type: cell-based; conditions: drug in combination with DHA (1.0-20 μM), DHA 2 h before, drug 72 h
Procedure: as §1

[2] = tested on: HCT116 colon cancer cells; assay: In vivo antitumour activity, s.c. xenograft in CD1 nude mice; conditions: DHA 200 mg/kg p.o., AZD2281 100 mg/kg i.p., qdx5/wx4w; for antitumor effect when given singularly / tolerability (body weight loss during the treatment): HCT116 xenograft mice, ABT-888 50 mg/kg; for BWL %: body weight loss; for BWL % / TVI % / TV ± SE: HCT116 xenograft, CD1 nude mice, ABT-888 50 mg/kg i.p.; for TVI %: tumour volume inhibition; for TV ± SE: tumour volume, evaluated at about 500 mm^3
Procedure: HCT116 colon cancer cells were inoculated subcutaneously (s.c.) in the right flank of CD1 nude mice (5×10^6/0.1 ml of Medium 199). Treatments started three days after tumour injection. Mice were subdivided (8 mice/group) in the following experimental groups:
(§2) a) Vehicle (DMSO 10%) 10 ml/kg, i.p.;
b) DHA 200 mg/kg, p.o. qdx5/wx4w;
d) AZD2281+DHA (doses and schedules as above);
e) ABT-888 50 mg/kg, i.p. qdx5/wx4w;
f) ABT-888+DHA (doses and schedules as above).
DHA was administered immediately before AZD2281 or ABT-888.
The antitumour activity was evaluated according to the protocol reported hereinabove in example 3 when tumours reached a volume of about 500 mm^3.
Body weight recording was carried out to evaluate body weight loss according to the protocol reported hereinabove in example 3.

LoVo/Dx MDR = assay: Anti-proliferative activity, sulphorodamine B test; assay type: cell-based
Procedure: (§3) The biological activity of DHA and ART on tumour cells survival was evaluated. The latter were seeded in 96-well tissue culture plates at approximately 10% confluence and were allowed to attach and recover for at least 24 h before being exposed to DHA or ART for 24 h at 37° C. They were then washed to remove DHA and ART and left to recover for 48 hours in medium culture. The medium culture was then removed and cells were washed three times with PBS. The plates were then incubated for on ice for 1 hour with 200 μl of PBS and 50 μl of cold 80% TCA before being washed with distilled water, dried on paper and finally at 40° C. for 5 minutes. 200 μl of 0.4% sulphorodamine B in 1% acetic acid were added and the incubation was prolonged for 30 minutes. Sulphorodamine B was removed, and the plates were washed 3 times with 1% acetic acid. They were finally dried on paper followed by standing at 40° C. for 5 minutes. Then 200 μl Tris 10 mM were added, the plates were kept under stirring for 20 minutes. Cell survival was determined as optical density at 540 nm by means of a Multiskan spectrofluorimeter. The amount of cells killed was expressed as the percentage decrease in sulphorodamine B binding compared to control cultures. IC50 were generated with their standard deviations by the ALLFIT program.

LoVo = assay: Anti-proliferative activity, sulphorodamine B test; assay type: cell-based; conditions: Homo sapiens, 24 h exposure, 48 h recovery
Procedure: as §3

MCF-7 = assay: Anti-proliferative activity, sulphorodamine B test; assay type: cell-based; conditions: Homo sapiens, MCF7, 24 h exposure, 48 h recovery
Procedure: as §3

MCF-7/Dx MDR = assay: Anti-proliferative activity, sulphorodamine B test; assay type: cell-based
Procedure: as §3

HCT116 [3] = assay: Anti-proliferative activity, sulphorodamine B test; assay type: cell-based; conditions: Homo sapiens, HCT-116, 24 h exposure, 48 h recovery
Procedure: as §3

[4] = tested on: NCI-H460 non-small cell lung carcinoma; assay: In vivo antitumor activity, s.c. xenograft in CD1 nude mice; conditions: DHA 200 mg/kg p.o., AZD2281 100 mg/kg i.p., qdx5/wx3w
Procedure: NCI-H460 non-small cell lung carcinoma cells were inoculated subcutaneously (s.c.) in the right flank of CD1 nude mice (3×10^6/0.1 ml of Medium 199). Treatments started three days after tumour injection. Mice were subdivided (10 mice/group) in the following experimental groups:
as §2
b) DHA 200 mg/kg, p.o. qdx5/wx3w;
d) AZD2281+DHA (doses and schedules as above).
For the latter experiment DHA was administered immediately before AZD2281.
To evaluate the antitumour activity, tumour diameters were measured with a Vernier calliper according to the formula TV=d^2×D/2 where d and D are the shortest and longest diameters, respectively.
When tumours reached a volume of about 1500 mm^3, mice were sacrificed by cervical dislocation. The efficacy of the drug was assessed as the tumour volume inhibition according to the formula reported underneath: […]
Body weight recording was carried out to evaluate body weight loss as calculated in the equation underneath: […]
Wherein BW day x corresponds to the mean weight at day x of the experiment meanwhile BW day 1 corresponds to the mean weight at the first day of the experiment.

A2780/DDP = assay: Synergistic interaction with DHA, combination index (Chou-Talalay, SRB); assay type: cell-based; conditions: drug in combination with DHA (1.0-20 μM), DHA 2 h before, drug 72 h
Procedure: (§4) Tumour cells were grown in RPMI 1640 containing 10% foetal bovine serum and treated as described in example 1 with the exception that instead of being exposed only to ART or DHA, the cell lines were treated with the drugs reported in table 2 in combination with DHA (from 1.0 μM to 20 μM, table 2). Tumour cells were treated for 2 h with DHA prior to exposure to further chemotherapeutic agents for 72 h. Cell survival was then evaluated through sulphorodamine B test. Data gathered from the various combination experiments were analyzed using Calcusyn software (Biosoft, Ferguson, Mo.) through the elaboration of isobolograms to determine if the combinations of DHA and the various chemotherapeutic agents were additive, synergistic or antagonistic. Viability assay results (SRB) were expressed as the fraction of cells killed when exposed to a single drug or to a drug combination with respect to the untreated cells. A combination index value (CI) was determined by means of the Chou-Talalay median effect method (T-C Chou, et al., Trends Pharmacol. Sci., 1983, 4, 450), wherein synergism can be defined when CI<1 and the lower the CI parameter value, the stronger the synergism (as defined by CalcuSyn 2.0 analyzer).

SW620 = assay: as above; assay type: cell-based; conditions: drug in combination with DHA (1.0-20 μM), DHA 2 h before, drug 72 h
Procedure: as §4

A2780 = assay: as above; assay type: cell-based; conditions: drug in combination with DHA (1.0-20 μM), DHA 2 h before, drug 72 h
Procedure: as §4

CC[C@@]1(O)C(=O)OCc2c1cc1n(c2=O)Cc2c-1nc1ccccc1c2/C=N\OCCN [7-(2-amino)-ethoxyiminomethyl-camptothecin]
Combination index values ED50 (NCI-H460): 0.39 | Combination index values ED75 (NCI-H460): 0.24 | Combination index values ED90 (NCI-H460): 0.16

C[C@]1(c2nc3c(C(N)=O)cccc3[nH]2)CCCN1 [ABT-888]
Combination index values ED50 (CAPAN-1): 0.59 | Combination index values ED75 (CAPAN-1): 0.32 | Combination index values ED90 (CAPAN-1): 0.22 | Combination index values ED50 (MDA-MB436): 0.42 | Combination index values ED75 (MDA-MB436): 0.43 | Combination index values ED90 (MDA-MB436): 0.47 | Combination index values ED50 (A431): 0.45 | Combination index values ED75 (A431): 0.49 | Combination index values ED90 (A431): 0.37 | Combination index values ED50 (NCI-H460): 0.78 | Combination index values ED75 (NCI-H460): 0.61 | Combination index values ED90 (NCI-H460): 0.49 | Combination index values ED50 (HCT116 [1]): 0.66 | Combination index values ED75 (HCT116 [1]): 0.66 | Combination index values ED90 (HCT116 [1]): 0.66 | antitumor effect when given singularly [2]: None of them when given singularly did show any antitumor effect | tolerability (body weight loss during the treatment) [2]: well-tolerated | BWL % [2]: 0% | TVI % [2]: 2% | TV ± SE [2]: 395 ± 56

C[C@@H]1CC[C@H]2[C@@H](C)C(=O)O[C@@H]3O[C@@]4(C)CC[C@@H]1[C@]32OO4 [ART, artemisinin]
IC50 (LoVo/Dx MDR; LoVo/Dx MDR, 24 h exposure, 48 h recovery): > 200 µM | IC50 (LoVo): > 200 µM | IC50 (MCF-7): 45.8 ± 11.5 µM | IC50 (MCF-7/Dx MDR; MCF7/DX, MCF-7/Dx MDR, 24 h exposure, 48 h recovery): 187 ± 70 µM | resistance index (MCF-7/Dx MDR; MCF-7/Dx MDR versus MCF-7): 4 | IC50 (HCT116 [3]): 257 ± 28.8 µM

O=C(c1cc(Cc2n[nH]c(=O)c3ccccc23)ccc1F)N1CCN(C(=O)C2CC2)CC1 [AZD2281]
Combination index values ED50 (CAPAN-1): 0.35 | Combination index values ED75 (CAPAN-1): 0.49 | Combination index values ED90 (CAPAN-1): 0.73 | Combination index values ED50 (MDA-MB436): 0.28 | Combination index values ED75 (MDA-MB436): 0.30 | Combination index values ED90 (MDA-MB436): 0.68 | Combination index values ED50 (A431): 0.37 | Combination index values ED75 (A431): 0.02 | Combination index values ED90 (A431): 0.02 | Combination index values ED50 (NCI-H460): 0.62 | Combination index values ED75 (NCI-H460): 0.48 | Combination index values ED90 (NCI-H460): 0.42 | Combination index values ED50 (HCT116 [1]): 0.36 | Combination index values ED75 (HCT116 [1]): 0.34 | Combination index values ED90 (HCT116 [1]): 0.31 | antitumor effect when given singularly ([4]; NCI-H460 xenograft mice): no antitumor effect | tolerability (body weight loss during the treatment) ([4]; NCI-H460 xenograft mice): well-tolerated | BWL % ([4]; body weight loss, NCI-H460 xenograft, CD1 nude mice): 1% | TVI % ([4]; tumour volume inhibition, NCI-H460 xenograft, CD1 nude mice): 1% | TV ± SE ([4]; tumour volume, NCI-H460 xenograft, CD1 nude mice, sacrifice at about 1500 mm^3): 1603 ± 171 | Combination index values ED50 (A2780/DDP): 0.63 | Combination index values ED75 (A2780/DDP): 0.68 | Combination index values ED90 (A2780/DDP): 0.63 | Combination index values ED50 (SW620): 0.60 | Combination index values ED75 (SW620): 0.55 | Combination index values ED90 (SW620): 0.66 | antitumor effect when given singularly [2]: None of them when given singularly did show any antitumor effect | tolerability (body weight loss during the treatment) [2]: well-tolerated | BWL % [2]: 1% | TVI % [2]: 18% | TV ± SE [2]: 328 ± 52

N.N.O=C([O-])C1(C(=O)[O-])CCC1.[Pt+2] [Carboplatin, carboplatin]
Combination index values ED50 (NCI-H460): 0.53 | Combination index values ED75 (NCI-H460): 0.71 | Combination index values ED90 (NCI-H460): 0.95

N.N.[Cl][Pt][Cl] [Cisplatin, cisplatin]
Combination index values ED50 (NCI-H460): 0.79 | Combination index values ED75 (NCI-H460): 0.88 | Combination index values ED90 (NCI-H460): 0.98

COc1cccc2c1C(=O)c1c(O)c3c(c(O)c1C2=O)C[C@@](O)(C(=O)CO)C[C@@H]3O[C@H]1C[C@H](N)[C@H](O)[C@H](C)O1 [Doxorubicin, doxorubicin]
Combination index values ED50 (NCI-H460): 0.76 | Combination index values ED75 (NCI-H460): 0.53 | Combination index values ED90 (NCI-H460): 0.37 | resistance index (LoVo/Dx MDR; LoVo/Dx MDR versus LoVo): 63

NC(=O)c1cccc2cn(-c3ccc([C@@H]4CCCNC4)cc3)nc12 [MK-4827]
Combination index values ED50 (NCI-H460): 0.83 | Combination index values ED75 (NCI-H460): 0.83 | Combination index values ED90 (NCI-H460): 0.84

O=c1[nH]c2ccccc2c2ccccc12 [Phenanthridinone]
Combination index values ED50 (NCI-H460): 0.19 | Combination index values ED75 (NCI-H460): 0.20 | Combination index values ED90 (NCI-H460): 0.22 | Combination index values ED50 (A2780): 0.003 | Combination index values ED75 (A2780): 0.05 | Combination index values ED90 (A2780): 0.67

CCc1c2c(nc3ccc(O)cc13)-c1cc3c(c(=O)n1C2)COC(=O)[C@]3(O)CC [SN-38]
Combination index values ED50 (NCI-H460): 0.81 | Combination index values ED75 (NCI-H460): 0.68 | Combination index values ED90 (NCI-H460): 0.59
